One experiment deals with T1, Adenosine receptor A2b (Homo sapiens, UniProt P29275).
T1 sequence (P29275 whole entry): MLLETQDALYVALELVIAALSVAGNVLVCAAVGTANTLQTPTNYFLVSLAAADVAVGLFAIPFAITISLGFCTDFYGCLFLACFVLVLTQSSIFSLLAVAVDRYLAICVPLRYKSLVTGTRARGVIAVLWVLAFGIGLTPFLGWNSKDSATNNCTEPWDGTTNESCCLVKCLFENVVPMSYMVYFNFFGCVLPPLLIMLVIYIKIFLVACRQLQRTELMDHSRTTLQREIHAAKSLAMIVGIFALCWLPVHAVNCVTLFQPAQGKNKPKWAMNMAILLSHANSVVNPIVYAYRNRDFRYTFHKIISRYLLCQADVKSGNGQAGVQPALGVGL
As to the kind of experiment: Displacement of [3H]ZM241385 from human adenosine A2b receptor expressed in HEK cells. Type of experiment: cell-based, HEK293.

For a further experiment, the target named is Adenosine receptor A2a (Homo sapiens, UniProt P29274). Briefly: Displacement of [3H]ZM-241385 from human adenosine A2a receptor expressed in HEK cells. Type of experiment: cell-based, HEK293.
A further experiment addresses T2, Adenosine receptor A1 (Homo sapiens, UniProt P30542).
T2 sequence (P30542 whole entry): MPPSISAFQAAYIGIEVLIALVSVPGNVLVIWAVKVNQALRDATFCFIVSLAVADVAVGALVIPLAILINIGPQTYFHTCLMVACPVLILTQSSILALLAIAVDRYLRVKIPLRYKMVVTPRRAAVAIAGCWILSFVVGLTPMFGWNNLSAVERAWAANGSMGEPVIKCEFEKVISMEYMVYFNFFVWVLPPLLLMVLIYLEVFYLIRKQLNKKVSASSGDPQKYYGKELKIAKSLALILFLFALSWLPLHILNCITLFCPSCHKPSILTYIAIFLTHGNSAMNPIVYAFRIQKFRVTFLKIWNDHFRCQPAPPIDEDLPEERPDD
As to the kind of experiment: Displacement of [3H]CPX from human adenosine A1 receptor expressed in CHO cells.

Experiment [1] concerns the target Adenosine receptors; A1 & A2b (Homo sapiens) (UniProt P30542+P29275). Briefly: Selectivity for human adenosine A2b receptor over adenosine A1 receptor. Type of experiment: protein assay.
In experiment [2] the target is Adenosine A2 receptor (Homo sapiens) (UniProt P29275+P29274). As to the kind of experiment: Selectivity for human adenosine A2b receptor over adenosine A2a receptor. The class given is protein assay.

Structures are written as SMILES.

Adenosine receptor A2a, sequence (P29274 whole entry): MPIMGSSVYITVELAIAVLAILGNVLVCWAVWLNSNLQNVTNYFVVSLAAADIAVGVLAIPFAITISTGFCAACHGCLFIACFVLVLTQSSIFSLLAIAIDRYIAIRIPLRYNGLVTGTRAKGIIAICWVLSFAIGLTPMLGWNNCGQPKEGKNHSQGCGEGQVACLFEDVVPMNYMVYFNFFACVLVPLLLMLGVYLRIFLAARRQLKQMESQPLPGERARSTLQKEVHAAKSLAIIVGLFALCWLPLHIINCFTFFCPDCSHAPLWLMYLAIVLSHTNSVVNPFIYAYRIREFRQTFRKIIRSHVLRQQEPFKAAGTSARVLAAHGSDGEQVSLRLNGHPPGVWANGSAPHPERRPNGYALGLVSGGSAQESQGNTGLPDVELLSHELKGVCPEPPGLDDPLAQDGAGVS

With `CCCn1c(=O)c2[nH]c(-c3cnn(Cc4cc(C(F)(F)F)cc(C(F)(F)F)c4)c3)nc2n(CCC)c1=O`, the Ki on Adenosine receptor A2b turned out to be 350 nM.
Consider `CCCn1c(=O)c2[nH]c(-c3cnn(-c4ccccc4)c3)nc2n(CCC)c1=O`, for which the figures for the Ki on Adenosine receptor A2b, at Adenosine receptor A2a and on Adenosine receptor A1 were 310 nM, 560 nM and 770 nM, respectively.
Consider `CCCn1c(=O)c2nc(-c3cnn(Cc4ccccc4C)c3)[nH]c2n(CCC)c1=O`, for which the Ratio Ki in experiment [1] amounted to 0.6; in experiment [2] it was 2.
Taken in the same sequence, the figures for `CCCn1c(=O)c2nc(-c3cnn(Cc4ccccc4C(F)(F)F)c3)[nH]c2n(CCC)c1=O` were 1 and 6.
Regarding `CCCn1c(=O)c2nc(-c3cnn(Cc4ccc(Cl)c(C(F)(F)F)c4)c3)[nH]c2n(CCC)c1=O`, on Adenosine receptor A2b, the Ki was 200 nM.
On to `CCCn1c(=O)c2nc(-c3cnn(Cc4ccccc4OC)c3)[nH]c2n(CCC)c1=O`, for which the Ratio Ki in experiment [1] worked out at 2; in experiment [2], 4.
Regarding `CCCc1c(-c2nc3c([nH]2)c(=O)n(CCC)c(=O)n3CCC)cnn1-c1ccccc1`, the Ki at Adenosine receptor A2b is > 6600 nM.
The same measure, in the same setting: with `CCCn1c(=O)c2nc(-c3cnn(Cc4ccc(F)cc4F)c3)[nH]c2n(CCC)c1=O` the figure was 700 nM.
With `CCCn1c(=O)c2[nH]c(-c3cnn(Cc4ccc(C)cc4)c3)nc2n(CCC)c1=O`, the Ki turned out to be 40 nM at Adenosine receptor A2b, 80 nM on Adenosine receptor A2a and 38 nM on Adenosine receptor A1.
Take `CCCn1c(=O)c2nc(-n3cccn3)[nH]c2n(CCC)c1=O`: the Ki on Adenosine receptor A2b was > 5800 nM.
Regarding `CCCCn1c(=O)c2[nH]c(-c3cnn(Cc4ccccc4)c3)nc2n(CCCC)c1=O`, the Ki stood at 980 nM at Adenosine receptor A2b, 890 nM at Adenosine receptor A2a and 1400 nM on Adenosine receptor A1.
Regarding `CCCn1c(=O)c2nc(-c3cnn(-c4ccccc4)c3C(F)(F)F)[nH]c2n(CCC)c1=O`, the Ki at Adenosine receptor A2b is > 6600 nM.
Still for that read-out and setting: with `CCCn1c(=O)c2c(nc(-n3cc(I)cn3)n2Cc2ccccc2)n(CCC)c1=O` the figure was > 5800 nM.
As to `CCCn1c(=O)c2[nH]c(-c3cnn(Cc4ccccc4F)c3)nc2n(CCC)c1=O`, the inhibition constant Ki at Adenosine receptor A2b stood at 28 nM; on Adenosine receptor A2a it was 60 nM; at Adenosine receptor A1, 19 nM.
Regarding `CC(C)Cn1c(=O)c2nc(-c3cnn(Cc4ccccc4)c3)[nH]c2n(CC(C)C)c1=O`, the Ratio Ki in experiment [1] worked out at 0.5; in experiment [2], 1.
Take `CCCn1c(=O)c2nc(-c3cnn(CCc4ccccc4)c3)[nH]c2n(CCC)c1=O`: the Ratio Ki was found to be 0.2 in experiment [1] and 7 in experiment [2]. The figures for the Ki on Adenosine receptor A2b, at Adenosine receptor A2a and on Adenosine receptor A1 were 74 nM, 570 nM and 17 nM, respectively.
On to `CCCn1c(=O)c2[nH]c(-c3cnn(Cc4ccccc4C)c3)nc2n(CCC)c1=O`, for which the Ki turned out to be 33 nM at Adenosine receptor A2b, 51 nM on Adenosine receptor A2a and 22 nM at Adenosine receptor A1.
The matching figures for `CCCn1c(=O)c2[nH]c(-c3cnn(Cc4ccc(F)cc4)c3)nc2n(CCC)c1=O`: 22 nM, 120 nM and 23 nM.
Regarding `CCCn1c(=O)c2[nH]c(-c3cnn(Cc4cccc(C)c4)c3)nc2n(CCC)c1=O`, the Ki worked out at 36 nM at Adenosine receptor A2b, 66 nM at Adenosine receptor A2a and 48 nM at Adenosine receptor A1.
Take `CCCn1c(=O)c2[nH]c(-c3cc(C)nn3C)nc2n(CCC)c1=O`: on Adenosine receptor A2b, affinity was put at a Ki of 3700 nM.
For the compound `CC(C)Cn1c(=O)c2nc(-c3cnn(Cc4cccc(F)c4)c3)[nH]c2n(CC(C)C)c1=O`, the Ratio Ki in experiment [1] and in experiment [2] was 1 throughout.
As for `CCn1c(=O)c2[nH]c(-c3cnn(Cc4ccccc4)c3)nc2n(CC)c1=O`, the Ki is 19 nM at Adenosine receptor A2b, 120 nM at Adenosine receptor A2a and 580 nM at Adenosine receptor A1.
In turn, `CCCn1c(=O)c2nc(-c3ccnn3-c3ccccc3)[nH]c2n(CCC)c1=O` gave a Ki on Adenosine receptor A2b of 1100 nM.
On the same count and under the same terms, with `CCCn1c(=O)c2nc(-c3cnn(-c4ccccc4)c3C)[nH]c2n(CCC)c1=O` the figure was > 4100 nM.
For `CCCn1c(=O)c2nc(-c3cnn(Cc4cccc(C)c4)c3)[nH]c2n(CCC)c1=O`, the Ratio Ki in experiment [1] came to 1; in experiment [2], 2.
Taken in the same sequence, the figures for `CCCCn1c(=O)c2nc(-c3cnn(Cc4ccccc4)c3)[nH]c2n(CCCC)c1=O` were 1 and 1.
The matching figures for `CCCn1c(=O)c2nc(-c3cnn(-c4ccccc4)c3)[nH]c2n(CCC)c1=O`: 2 and 2.
As to `CCCn1c(=O)c2[nH]c(-c3cnn(-c4ccc(Cl)cc4)c3C(F)(F)F)nc2n(CCC)c1=O`, at Adenosine receptor A2b, the inhibition constant Ki is > 6600 nM.
At Adenosine receptor A1, `CCCn1c(=O)[nH]c(=O)c2[nH]cnc21` [ENPROFYLLINE] showed a Ki of 42000 nM.
Regarding `CCn1c(=O)c2nc(-c3cnn(Cc4ccccc4)c3)[nH]c2n(CC)c1=O`, the Ratio Ki was determined as 30 in experiment [1] and 6 in experiment [2].
Taken in the same sequence, the figures for `CCCn1c(=O)c2nc(-c3cnn(Cc4ccccc4F)c3)[nH]c2n(CCC)c1=O` were 0.6 and 2.
Taken in the same sequence, the figures for `CCCn1c(=O)c2nc(-c3cnn(Cc4ccc(F)cc4)c3)[nH]c2n(CCC)c1=O` were 1 and 5.
As to `CCCn1c(=O)c2[nH]c(-c3cnn(Cc4ccccc4OC)c3)nc2n(CCC)c1=O`, the Ki turned out to be 37 nM at Adenosine receptor A2b, 140 nM on Adenosine receptor A2a and 59 nM at Adenosine receptor A1.
As for `CCCn1c(=O)c2nc(-c3cc(C)nn3CC)[nH]c2n(CCC)c1=O`, on Adenosine receptor A2b, the Ki turned out to be 2100 nM.
`CCCn1c(=O)c2nc(-c3cnn(Cc4ccc(C)cc4)c3)[nH]c2n(CCC)c1=O`: the results for the Ratio Ki in experiment [1] and in experiment [2] were 1 and 2, respectively.
Taken in the same sequence, the figures for `CC(C)Cn1c(=O)c2nc(-c3cnn(Cc4cccc(C(F)(F)F)c4)c3)[nH]c2n(CC(C)C)c1=O` were 10 and 14.
For the compound `CC(C)Cn1c(=O)c2[nH]c(-c3cnn(Cc4cccc(C(F)(F)F)c4)c3)nc2n(CC(C)C)c1=O`, the Ki on Adenosine receptor A2b was 300 nM; at Adenosine receptor A2a, 4300 nM; on Adenosine receptor A1, 3100 nM.
Taken in the same sequence, the figures for `CCCn1c(=O)c2[nH]c(-c3cnn(Cc4cccc(C)c4F)c3)nc2n(CCC)c1=O` were 44 nM, 460 nM and 390 nM.
The matching figures for `CC(C)Cn1c(=O)c2[nH]c(-c3cnn(Cc4ccccc4)c3)nc2n(CC(C)C)c1=O`: 1250 nM, 1100 nM and 620 nM.
In turn, `CCCn1c(=O)c2nc(-c3cnn(Cc4c(F)cccc4F)c3)[nH]c2n(CCC)c1=O` had a Ki at Adenosine receptor A2b of 390 nM.
On to `CCCn1c(=O)c2nc(-c3cnn(Cc4ccc(OC)cc4)c3)[nH]c2n(CCC)c1=O`, for which the Ratio Ki in experiment [1] turned out to be 2; in experiment [2] it was 1.
On Adenosine receptor A2b, `CCCn1c(=O)c2[nH]c(-c3cnn(Cc4cccc(F)c4F)c3)nc2n(CCC)c1=O` showed a Ki of 240 nM.
Regarding `CCCn1c(=O)c2[nH]c(-c3cnn(Cc4ccccc4C(F)(F)F)c3)nc2n(CCC)c1=O`, the Ki at Adenosine receptor A2b came out at 37 nM; at Adenosine receptor A2a, 230 nM; on Adenosine receptor A1, 44 nM.
The matching figures for `CCCn1c(=O)c2[nH]c(-c3cnn(Cc4cc(Cl)ccc4Cl)c3)nc2n(CCC)c1=O`: 29 nM, 70 nM and 190 nM.
`CCCn1c(=O)c2[nH]c(-c3cnn(Cc4cc(C(F)(F)F)cc(Cl)c4F)c3)nc2n(CCC)c1=O` had a Ki on Adenosine receptor A2b of 360 nM.
The same measure, in the same setting: in the case of `CCCn1c(=O)c2[nH]c(-c3cnn(Cc4cc(F)ccc4Cl)c3)nc2n(CCC)c1=O` it was 4800 nM; in that of `CCCn1c(=O)c2[nH]c(-c3cnn(Cc4ccc(F)c(C(F)(F)F)c4)c3)nc2n(CCC)c1=O`, 640 nM; in that of `CCCn1c(=O)c2nc(-c3cnn(Cc4ccc(OC)c(C(F)(F)F)c4)c3)[nH]c2n(CCC)c1=O`, 410 nM.
With `CCCn1c(=O)c2nc(-c3cnn(Cc4ccccc4Cl)c3)[nH]c2n(CCC)c1=O`, in experiment [1], the Ratio Ki was 3. Further, the Ki worked out at 20 nM at Adenosine receptor A2b, 49 nM at Adenosine receptor A2a and 59 nM on Adenosine receptor A1.
With `CCCn1c(=O)c2[nH]c(-c3cnn(Cc4ccc(OC)cc4)c3)nc2n(CCC)c1=O`, the figures for the Ki at Adenosine receptor A2b, at Adenosine receptor A2a and on Adenosine receptor A1 were 37 nM, 61 nM and 70 nM, respectively.
On to `CCCn1c(=O)c2nc(-c3cnn(Cc4cccc(C)c4F)c3)[nH]c2n(CCC)c1=O`, for which the Ratio Ki came to 9 in experiment [1] and 10 in experiment [2].
Compound `CCCn1c(=O)c2nc(-c3cnn(Cc4c(F)cc(F)cc4F)c3)[nH]c2n(CCC)c1=O` registered a Ki at Adenosine receptor A2b of 650 nM.
In the case of `CC(C)Cn1c(=O)c2[nH]c(-c3cnn(Cc4cccc(F)c4)c3)nc2n(CC(C)C)c1=O`, the inhibition constant (Ki) was 990 nM at Adenosine receptor A2b, 1300 nM at Adenosine receptor A2a and 830 nM at Adenosine receptor A1.
As to `CCCn1c(=O)c2nc(-c3cnn(Cc4cc(Cl)ccc4Cl)c3)[nH]c2n(CCC)c1=O`, the Ratio Ki worked out at 6 in experiment [1] and 2 in experiment [2].
Regarding `CCCn1c(=O)c2c(nc(-n3cccn3)n2Cc2ccccc2)n(CCC)c1=O`, the inhibition constant Ki on Adenosine receptor A2b was > 5800 nM.

For the origin of these results see ChEMBL document CHEMBL1148648, “Novel 1,3-disubstituted 8-(1-benzyl-1H-pyrazol-4-yl) xanthines: high affinity and selective A2B adenosine receptor antagonists” (J Med Chem, 2006).
